Laboratory results published in PMC6429214, “Design, Synthesis and Biological Evaluation of Isoxazole-Based CK1 Inhibitors Modified with Chiral Pyrrolidine Scaffolds” (Molecules, 2019).

Legend:
Assay in all cases: 33PanQinase panel
Type in all cases: biochemical
[1] = molecular target: T1, ACK1 (Homo sapiens, UniProt Q07912); details: ACK1, 1 µM; read-out: Residual Activity (%)
T1 construct: purchased ProQinase
Procedure: (§1) Figure 5 Dendrogram representation of the selectivity profile of 29d at a concentration of 1 μM in a panel of 320 wild-type kinases (ProQinase, Freiburg, Germany). The residual kinase activity was determined compared to DMSO control. Images were generated using TREEspot Software Tool, DISCOVERX CORPORATION 2010. […]
(§2) Table S2. Selectivity profile of compound 29d. The inhibitor has been screened at a concentration of 1 µM over a panel of 320 wild-type protein kinases by ProQinase GmbH (Freiburg, Germany) using an activity-based radiometric 33PanQinase® assay. Results are presented as percentage of residual kinase activity relative to […]
(§3) control. The final DMSO concentration was 1 % in each reaction-mix. Classification of protein kinase families refers to Manning et al. (Manning, G.; Whyte, D. B.; Martinez, R.; Hunter, T.; Sudarsanam, S. The Protein Kinase Complement of the Human Genome. Science 2002, 298, 1912–1934): AGC = containing PKA, PKG, PKC families; […] = containing Cdk, MAPK, GSK3, CLK families; STE = homologs of yeast sterile 7, sterile 11, sterile 20 kinases; TK = tyrosine kinase; TKL = tyrosine kinase-like.
(§4) Kinase name Kinase family Residual Activity (%)

[2] = molecular target: T2, CAMK2D (Homo sapiens, UniProt Q13557); details: read-out: Residual Activity (%)
T2 construct: purchased ProQinase
Procedure: as §1, §2, §3, §4

[3] = molecular target: T3, IKK-epsilon (Homo sapiens, UniProt Q14164); details: read-out: Residual Activity (%)
T3 construct: purchased ProQinase
Procedure: as §1, §2, §3, §4

[4] = molecular target: T4, KIT (Homo sapiens, UniProt P10721); details: read-out: Residual Activity (%)
T4 construct: purchased ProQinase
Procedure: as §1, §2, §3, §4

[5] = molecular target: T5, AKT2 aa107-481 (Homo sapiens, UniProt P31751); details: AKT2 aa107-481, 1 µM; read-out: Residual Activity (%)
T5 construct: purchased ProQinase
Procedure: as §1, §2, §3, §4

[6] = molecular target: T6, TSK2 (Homo sapiens, UniProt Q96PF2); details: TSK2, 1 µM; read-out: Residual Activity (%)
T6 construct: purchased ProQinase
Procedure: as §1, §2, §3, §4

[7] = molecular target: T7, RET (Homo sapiens, UniProt P07949); details: read-out: Residual Activity (%)
T7 construct: purchased ProQinase
Procedure: as §1, §2, §3, §4

[8] = molecular target: T8, MAPKAPK2 (Homo sapiens, UniProt P49137); details: MAPKAPK2, 1 µM; read-out: Residual Activity (%)
T8 construct: purchased ProQinase
Procedure: as §1, §2, §3, §4

[9] = molecular target: T9, STK17A (Homo sapiens, UniProt Q9UEE5); details: read-out: Residual Activity (%)
T9 construct: purchased ProQinase
Procedure: as §1, §2, §3, §4

[10] = molecular target: T10, Aurora-C (Homo sapiens, UniProt Q9UQB9); details: read-out: Residual Activity (%)
T10 construct: purchased ProQinase
Procedure: as §1, §2, §3, §4

[11] = molecular target: T11, RPS6KA3 (Homo sapiens, UniProt P51812); details: RPS6KA3, 1 µM; read-out: Residual Activity (%)
T11 construct: purchased ProQinase
Procedure: as §1, §2, §3, §4

[12] = molecular target: T12, SRPK2 (Homo sapiens, UniProt P78362); details: SRPK2, 1 µM; read-out: Residual Activity (%)
T12 construct: purchased ProQinase
Procedure: as §1, §2, §3, §4

[13] = molecular target: T13, PRKD2 (Homo sapiens, UniProt Q9BZL6); details: PRKD2, 1 µM; read-out: Residual Activity (%)
T13 construct: purchased ProQinase
Procedure: as §1, §2, §3, §4

[14] = molecular target: T14, B-RAF (Homo sapiens, UniProt P15056); details: read-out: Residual Activity (%)
T14 construct: purchased ProQinase
Procedure: as §1, §2, §3, §4

[15] = molecular target: T15, VRK1 (Homo sapiens, UniProt Q99986); details: VRK1, 1 µM; read-out: Residual Activity (%)
T15 construct: purchased ProQinase
Procedure: as §1, §2, §3, §4

[16] = molecular target: T16, MAPKAPK3 (Homo sapiens, UniProt Q16644); details: MAPKAPK3, 1 µM; read-out: Residual Activity (%)
T16 construct: purchased ProQinase
Procedure: as §1, §2, §3, §4

[17] = molecular target: T17, SNARK (Homo sapiens, UniProt Q9H093); details: read-out: Residual Activity (%)
T17 construct: purchased ProQinase
Procedure: as §1, §2, §3, §4

[18] = molecular target: T18, BTK (Homo sapiens, UniProt Q06187); details: read-out: Residual Activity (%)
T18 construct: purchased ProQinase
Procedure: as §1, §2, §3, §4

[19] = molecular target: T19, PKMYT1 (Homo sapiens, UniProt Q99640); details: PKMYT1, 1 µM; read-out: Residual Activity (%)
T19 construct: purchased ProQinase
Procedure: as §1, §2, §3, §4

[20] = molecular target: T20, EPHA2 (Homo sapiens, UniProt P29317); details: EPHA2, 1 µM; read-out: Residual Activity (%)
T20 construct: purchased ProQinase
Procedure: as §1, §2, §3, §4

[21] = molecular target: T21, DYRK1A (Homo sapiens, UniProt Q13627); details: read-out: Residual Activity (%)
T21 construct: purchased ProQinase
Procedure: as §1, §2, §3, §4

[22] = molecular target: T22, MKNK2 (Homo sapiens, UniProt Q9HBH9); details: MKNK2, 1 µM; read-out: Residual Activity (%)
T22 construct: purchased ProQinase
Procedure: as §1, §2, §3, §4

[23] = molecular target: T23, VEGF-R3 (Homo sapiens, UniProt P35916); details: VEGF-R3, 1 µM; read-out: Residual Activity (%)
T23 construct: purchased ProQinase
Procedure: as §1, §2, §3, §4

[24] = molecular target: T24, CDK6/CycD3 (Homo sapiens, UniProt Q00534); details: CDK6/CycD3, 1 µM; read-out: Residual Activity (%)
T24 construct: purchased ProQinase
Procedure: as §1, §2, §3, §4

[25] = molecular target: T25, CDK5/p35NCK (Homo sapiens, UniProt Q00535); details: read-out: Residual Activity (%)
T25 construct: purchased ProQinase
Procedure: as §1, §2, §3, §4

[26] = molecular target: T26, S6K (Homo sapiens, UniProt P23443); details: read-out: Residual Activity (%)
T26 construct: purchased ProQinase
Procedure: as §1, §2, §3, §4

[27] = molecular target: T27, DAPK3 (Homo sapiens, UniProt O43293); details: DAPK3, 1 µM; read-out: Residual Activity (%)
T27 construct: purchased ProQinase
Procedure: as §1, §2, §3, §4

[28] = molecular target: T28, Aurora-B (Homo sapiens, UniProt Q96GD4); details: read-out: Residual Activity (%)
T28 construct: purchased ProQinase
Procedure: as §1, §2, §3, §4

[29] = molecular target: T29, PLK1 (Homo sapiens, UniProt P53350); details: PLK1, 1 µM; read-out: Residual Activity (%)
T29 construct: purchased ProQinase
Procedure: as §1, §2, §3, §4

[30] = molecular target: T30, RAF1 Y340D/Y341D (untagged)** (Homo sapiens, UniProt P04049, Y340D/Y341D); details: read-out: Residual Activity (%)
T30 construct: purchased ProQinase
Procedure: as §1, §2, §3, §4

T5 sequence (P31751 107-481 limits assumed): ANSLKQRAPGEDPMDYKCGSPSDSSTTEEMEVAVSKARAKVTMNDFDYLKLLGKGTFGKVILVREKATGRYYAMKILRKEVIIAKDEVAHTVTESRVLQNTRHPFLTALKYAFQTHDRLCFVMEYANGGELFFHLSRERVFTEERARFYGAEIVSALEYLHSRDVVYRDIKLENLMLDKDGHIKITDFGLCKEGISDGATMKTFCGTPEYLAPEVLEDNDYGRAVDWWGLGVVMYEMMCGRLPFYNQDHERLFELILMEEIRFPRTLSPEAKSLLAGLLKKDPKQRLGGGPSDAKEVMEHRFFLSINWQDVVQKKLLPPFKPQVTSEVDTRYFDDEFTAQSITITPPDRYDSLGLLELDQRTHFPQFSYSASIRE
T9 sequence (Q9UEE5 whole entry): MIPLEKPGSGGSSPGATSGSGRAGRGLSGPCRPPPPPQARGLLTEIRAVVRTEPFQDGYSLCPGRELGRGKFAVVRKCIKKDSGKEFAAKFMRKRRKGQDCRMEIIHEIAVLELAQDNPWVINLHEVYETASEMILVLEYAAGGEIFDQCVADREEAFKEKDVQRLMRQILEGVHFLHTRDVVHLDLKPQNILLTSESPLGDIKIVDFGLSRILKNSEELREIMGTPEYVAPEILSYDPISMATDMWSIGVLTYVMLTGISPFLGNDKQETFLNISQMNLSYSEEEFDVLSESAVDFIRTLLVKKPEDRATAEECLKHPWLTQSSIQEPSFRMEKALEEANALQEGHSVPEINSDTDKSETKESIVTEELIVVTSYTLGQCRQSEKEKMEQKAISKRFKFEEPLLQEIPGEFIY
T11 sequence (P51812 whole entry): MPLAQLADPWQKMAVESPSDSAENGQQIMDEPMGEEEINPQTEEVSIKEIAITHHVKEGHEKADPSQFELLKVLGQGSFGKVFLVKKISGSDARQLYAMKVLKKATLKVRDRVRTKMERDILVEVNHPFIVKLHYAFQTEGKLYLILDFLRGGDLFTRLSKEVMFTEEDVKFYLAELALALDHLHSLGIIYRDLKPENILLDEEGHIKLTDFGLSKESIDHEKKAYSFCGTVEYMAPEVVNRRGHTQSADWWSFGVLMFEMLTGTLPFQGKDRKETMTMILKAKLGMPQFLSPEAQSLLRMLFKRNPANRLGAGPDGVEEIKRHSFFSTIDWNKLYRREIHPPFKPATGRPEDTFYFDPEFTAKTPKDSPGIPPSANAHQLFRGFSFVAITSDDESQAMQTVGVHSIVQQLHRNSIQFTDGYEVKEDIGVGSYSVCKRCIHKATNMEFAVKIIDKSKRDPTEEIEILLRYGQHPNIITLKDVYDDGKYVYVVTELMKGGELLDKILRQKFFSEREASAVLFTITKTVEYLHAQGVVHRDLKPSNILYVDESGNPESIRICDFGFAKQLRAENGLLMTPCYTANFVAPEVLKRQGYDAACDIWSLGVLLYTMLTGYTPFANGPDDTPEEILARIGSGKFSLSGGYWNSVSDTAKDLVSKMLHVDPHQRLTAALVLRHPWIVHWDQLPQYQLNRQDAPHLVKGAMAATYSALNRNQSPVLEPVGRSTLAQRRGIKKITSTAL
T12 sequence (P78362 whole entry): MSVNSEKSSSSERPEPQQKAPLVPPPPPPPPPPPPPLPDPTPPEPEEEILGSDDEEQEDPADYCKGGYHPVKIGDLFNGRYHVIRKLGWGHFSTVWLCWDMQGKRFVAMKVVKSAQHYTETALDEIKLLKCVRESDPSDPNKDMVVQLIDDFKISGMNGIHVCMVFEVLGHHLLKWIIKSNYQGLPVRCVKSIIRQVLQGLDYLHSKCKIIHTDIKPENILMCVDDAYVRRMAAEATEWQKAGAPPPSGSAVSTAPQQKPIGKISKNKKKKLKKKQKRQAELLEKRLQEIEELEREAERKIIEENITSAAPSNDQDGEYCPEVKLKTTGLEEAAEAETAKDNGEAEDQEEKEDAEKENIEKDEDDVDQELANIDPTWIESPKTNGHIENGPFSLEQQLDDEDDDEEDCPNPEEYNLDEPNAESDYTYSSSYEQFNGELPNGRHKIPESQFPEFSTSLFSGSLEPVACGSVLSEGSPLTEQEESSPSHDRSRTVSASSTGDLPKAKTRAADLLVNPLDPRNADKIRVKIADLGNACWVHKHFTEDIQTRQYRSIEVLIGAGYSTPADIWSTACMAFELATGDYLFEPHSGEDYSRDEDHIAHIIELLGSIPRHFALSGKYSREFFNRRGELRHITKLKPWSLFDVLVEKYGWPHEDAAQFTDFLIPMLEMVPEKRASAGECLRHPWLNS
T23 sequence (P35916 25-1363): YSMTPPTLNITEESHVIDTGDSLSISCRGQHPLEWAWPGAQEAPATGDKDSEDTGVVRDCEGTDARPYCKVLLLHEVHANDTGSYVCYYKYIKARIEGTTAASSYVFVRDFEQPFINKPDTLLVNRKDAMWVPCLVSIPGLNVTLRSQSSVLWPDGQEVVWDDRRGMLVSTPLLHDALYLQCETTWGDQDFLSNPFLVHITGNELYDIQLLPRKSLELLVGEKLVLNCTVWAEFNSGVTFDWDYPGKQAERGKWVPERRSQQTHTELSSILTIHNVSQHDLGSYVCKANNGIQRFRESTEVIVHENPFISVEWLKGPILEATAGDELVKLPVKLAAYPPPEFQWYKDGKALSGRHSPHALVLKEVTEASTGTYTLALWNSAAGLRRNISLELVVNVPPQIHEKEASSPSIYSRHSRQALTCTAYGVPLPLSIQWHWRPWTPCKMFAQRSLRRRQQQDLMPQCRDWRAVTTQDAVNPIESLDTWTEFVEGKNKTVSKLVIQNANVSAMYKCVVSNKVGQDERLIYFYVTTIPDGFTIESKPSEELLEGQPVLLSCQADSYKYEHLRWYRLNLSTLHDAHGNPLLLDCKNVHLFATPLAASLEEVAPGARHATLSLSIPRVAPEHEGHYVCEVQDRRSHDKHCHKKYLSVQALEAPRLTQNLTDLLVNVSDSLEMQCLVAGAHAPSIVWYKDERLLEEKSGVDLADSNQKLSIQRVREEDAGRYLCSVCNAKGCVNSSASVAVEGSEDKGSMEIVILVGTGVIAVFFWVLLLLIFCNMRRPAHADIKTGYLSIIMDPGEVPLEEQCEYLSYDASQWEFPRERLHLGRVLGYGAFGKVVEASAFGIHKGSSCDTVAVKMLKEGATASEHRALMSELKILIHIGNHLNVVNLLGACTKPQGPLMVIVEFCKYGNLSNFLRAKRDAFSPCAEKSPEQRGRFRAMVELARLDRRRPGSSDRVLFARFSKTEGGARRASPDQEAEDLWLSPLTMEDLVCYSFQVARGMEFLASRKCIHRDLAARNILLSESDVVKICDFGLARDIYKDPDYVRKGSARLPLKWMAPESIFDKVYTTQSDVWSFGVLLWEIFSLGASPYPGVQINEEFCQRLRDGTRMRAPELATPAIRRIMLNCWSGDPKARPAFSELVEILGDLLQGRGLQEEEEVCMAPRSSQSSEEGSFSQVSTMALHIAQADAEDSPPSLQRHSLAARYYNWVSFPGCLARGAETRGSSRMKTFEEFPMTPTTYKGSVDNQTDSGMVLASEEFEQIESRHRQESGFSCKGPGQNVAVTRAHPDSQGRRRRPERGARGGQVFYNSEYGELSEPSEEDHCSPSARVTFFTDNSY
T18 sequence (Q06187 whole entry): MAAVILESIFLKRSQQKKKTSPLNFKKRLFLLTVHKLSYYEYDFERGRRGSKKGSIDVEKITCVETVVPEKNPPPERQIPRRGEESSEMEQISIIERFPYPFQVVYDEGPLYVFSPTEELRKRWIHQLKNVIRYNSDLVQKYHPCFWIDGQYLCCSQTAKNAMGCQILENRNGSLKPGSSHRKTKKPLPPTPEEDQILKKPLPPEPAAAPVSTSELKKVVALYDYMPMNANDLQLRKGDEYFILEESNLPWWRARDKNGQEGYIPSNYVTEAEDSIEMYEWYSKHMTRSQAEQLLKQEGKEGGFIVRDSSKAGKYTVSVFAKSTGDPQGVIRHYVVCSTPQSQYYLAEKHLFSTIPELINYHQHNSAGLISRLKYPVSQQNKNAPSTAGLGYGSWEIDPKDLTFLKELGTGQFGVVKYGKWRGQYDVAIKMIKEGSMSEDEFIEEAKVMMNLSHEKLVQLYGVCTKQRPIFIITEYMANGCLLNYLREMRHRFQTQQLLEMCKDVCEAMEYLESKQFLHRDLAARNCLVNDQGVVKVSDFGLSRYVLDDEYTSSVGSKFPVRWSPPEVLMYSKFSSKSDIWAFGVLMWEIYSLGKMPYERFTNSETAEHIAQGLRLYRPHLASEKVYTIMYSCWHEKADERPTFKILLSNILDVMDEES
T22 sequence (Q9HBH9 whole entry): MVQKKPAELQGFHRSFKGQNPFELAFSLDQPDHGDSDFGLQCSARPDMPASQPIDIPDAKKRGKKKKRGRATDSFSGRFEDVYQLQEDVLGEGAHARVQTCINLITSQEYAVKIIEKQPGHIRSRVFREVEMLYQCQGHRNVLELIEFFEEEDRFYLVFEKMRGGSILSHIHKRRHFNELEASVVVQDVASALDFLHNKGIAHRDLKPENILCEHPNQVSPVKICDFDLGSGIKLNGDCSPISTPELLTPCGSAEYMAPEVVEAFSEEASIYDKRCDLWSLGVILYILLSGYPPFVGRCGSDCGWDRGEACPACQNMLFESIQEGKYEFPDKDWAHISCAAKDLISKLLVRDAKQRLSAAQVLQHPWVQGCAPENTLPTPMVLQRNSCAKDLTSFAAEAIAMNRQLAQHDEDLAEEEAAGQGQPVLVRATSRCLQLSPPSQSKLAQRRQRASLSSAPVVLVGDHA
T10 sequence (Q9UQB9 whole entry): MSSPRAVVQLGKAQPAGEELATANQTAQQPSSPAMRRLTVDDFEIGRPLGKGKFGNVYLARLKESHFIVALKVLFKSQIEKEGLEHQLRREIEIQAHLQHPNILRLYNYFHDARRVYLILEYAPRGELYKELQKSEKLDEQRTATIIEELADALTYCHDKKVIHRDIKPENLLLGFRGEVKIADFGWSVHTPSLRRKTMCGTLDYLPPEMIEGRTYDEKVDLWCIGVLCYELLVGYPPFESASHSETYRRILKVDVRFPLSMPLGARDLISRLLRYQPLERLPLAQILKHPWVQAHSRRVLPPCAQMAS

With `COc1ccc(-c2cc(C(=O)Nc3cc(-c4c(-c5ccc(F)cc5)noc4C(C)C)ccn3)n(CC3NCC(O)C3O)c2)cc1` (stereo not drawn) [29d] as the compound, how does the remaining activity at 1 µM [1] read?
The remaining activity at 1 µM was 96%.

What about the remaining activity at 1 µM [2] of the same compound?
Its remaining activity at 1 µM is 100%.

And the remaining activity at 1 µM [3]?
The remaining activity at 1 µM was 94%.

What about the remaining activity at 1 µM [4] of the same compound?
Its remaining activity at 1 µM is 102%.

What about the remaining activity at 1 µM [5] of the same compound?
The remaining activity at 1 µM was 107%.

What about the remaining activity at 1 µM [6] of the same compound?
Its remaining activity at 1 µM is 99%.

And the remaining activity at 1 µM [7]?
The remaining activity at 1 µM was 97%.

What about the remaining activity at 1 µM [8] of the same compound?
The remaining activity at 1 µM was 96%.

What about the remaining activity at 1 µM [9] of the same compound?
Its remaining activity at 1 µM is 102%.

And the remaining activity at 1 µM [10]?
Its remaining activity at 1 µM is 97%.

And the remaining activity at 1 µM [11]?
The remaining activity at 1 µM was 107%.

What about the remaining activity at 1 µM [12] of the same compound?
The remaining activity at 1 µM was 107%.

And the remaining activity at 1 µM [13]?
Its remaining activity at 1 µM is 110%.

What about the remaining activity at 1 µM [14] of the same compound?
Its remaining activity at 1 µM is 95%.

What about the remaining activity at 1 µM [15] of the same compound?
The remaining activity at 1 µM was 117%.

What about the remaining activity at 1 µM [16] of the same compound?
Its remaining activity at 1 µM is 91%.

What about the remaining activity at 1 µM [17] of the same compound?
The remaining activity at 1 µM was 123%.

And the remaining activity at 1 µM [18]?
Its remaining activity at 1 µM is 112%.

What about the remaining activity at 1 µM [19] of the same compound?
Its remaining activity at 1 µM is 107%.

And the remaining activity at 1 µM [20]?
The remaining activity at 1 µM was 103%.

What about the remaining activity at 1 µM [21] of the same compound?
The remaining activity at 1 µM was 120%.

And the remaining activity at 1 µM [22]?
The remaining activity at 1 µM was 92%.

And the remaining activity at 1 µM [23]?
Its remaining activity at 1 µM is 124%.

And the remaining activity at 1 µM [24]?
Its remaining activity at 1 µM is 98%.

And the remaining activity at 1 µM [25]?
Its remaining activity at 1 µM is 100%.

What about the remaining activity at 1 µM [26] of the same compound?
Its remaining activity at 1 µM is 102%.

And the remaining activity at 1 µM [27]?
Its remaining activity at 1 µM is 90%.

What about the remaining activity at 1 µM [28] of the same compound?
Its remaining activity at 1 µM is 96%.

What about the remaining activity at 1 µM [29] of the same compound?
The remaining activity at 1 µM was 98%.

And the remaining activity at 1 µM [30]?
The remaining activity at 1 µM was 103%.
